Assay results from US5192799A, “Coumaran group containing amine compounds and their acid addition salts and quaternary ammonium salts and the use thereof as anti arrhythmic agents and as psychotropic agents” (Mitsui Petrochemical Industries, Ltd., priority 1987, dated 1993).
Like-named read-outs stand apart in the source and are kept apart here.

Legend:
[1] = test system: atrial fibrillation; assay: Atrial fibrillation model; type: in vivo, mongrel dog; settings: dose of 0.3 to 3 mg/kg or 1 to 10 mg/kg
Description: Furthermore, the anaethetized dog was cut open at the chest. Bipolar electrodes were sutured to the right atrial surface, and stimulation electrodes were attached to the vagus nerves at both sides of the cervical region. Atrial fibrillation was induced by the method of Goldberger et al. A. L. Goldberger et al.: […] Further, the anaethetized dog was cut open at the chest. Left anterior descending coronary artery was ligated, and ninety minutes later, reperfused to prepare a myocardial infarction which was liable to develop tachycardia. At that time, a bipolar plunge electrode was placed in the interventricular septum near the ligated site. Several days after the operation, programmed electrical stimulation was applied to induce tachycardia. The effect of the drug to cause disappear of tachycardia was examined. In an anaethetized and open-chested mongrel dog, bipolar electrodes (silver and silver-silver chloride electrodes) were sutured respectively to the right atrium for stimulation and recording. The vagus nerves on both sides of the cervical region were isolated and cut, and stimulation electrodes were attached to the peripheral end. The atrial fibrillation was induced in accordance with the method of Goldberger et al. After cardiac arrest induced by stimulating the vagus nerves, electrical stimulation was applied to the right atria at a high frequency.

[2] = test system: right ventricle (effective refractory period); assay: Activity on ERP of the right ventricle; type: in vivo, adult mongrel dog; settings: Canis lupus familiaris, ERP before drug = 100%, read-out: ERP % (ERP prolonging activity); for change in vivo at 3 mg/kg: 3 mg/kg i.v.
How it was run: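 Anaesthetized open-chest mongrel dogs, right ventricle paced at 400 msec interval (4 msec, twice diastolic threshold) after alcohol ablation of sinus pacemaker. ERP defined by loss of response to first stimulus of a 10-stimulus train; drug given intravenously or intraduodenally, ERP expressed as % of pre-dose.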

[3] = test system: Purkinje fiber; assay: Effect on APD (APD75, field-stimulated right ventricular free wall); type: cell-based, adult mongrel dog; settings: 20 minutes incubation, 37° C., 1 Hz, control before drug = 100%; for activation at 1 µg/mL / activation at 3 µg/mL / activation at 10 µg/mL: Canis lupus familiaris, purkinje, 20 min, read-out: APD75 % (percent change in APD75); for activation at 10 µg/mL: dose 10 μg/ml
How it was run: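 Right ventricular free wall from pentobarbital-anaesthetized adult mongrel dog, held in Tyrode's solution at 37° C. with 1 Hz field stimulation. Purkinje fiber action potentials recorded by intracellular glass microelectrodes; APD75 measured after 20 minutes drug perfusion, expressed as percent change versus pre-drug control (100%).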

[4] = in vivo; settings: mouse, in vivo
Procedure: By using male ddY-strain 5-week old mice (3 to 4 per group), the compounds of general formula (1) were each administered orally or intraperitoneally as a solution in saline or as a suspension in methyl cellulose, and 24 hours after the administration, the toxicity of the compounds was evaluated.

[5] = biological target: T1, dopamine 2 receptor (Rattus norvegicus, UniProt P61169); assay: [3H]spiperone binding assay (affinity for dopamine 2 receptor); design: species or system Wistar-strain male rat; settings: rat striatal membranes, 0.5 nM [3H] spiperone, 37° C., 10 minutes
T1 construct: membrane fractions prepared from the brain a Wistarstrain male rat; from tissue; host or cells: rat brain striatum (Wistar, male), membrane fraction
T1 sequence (P61169 whole entry): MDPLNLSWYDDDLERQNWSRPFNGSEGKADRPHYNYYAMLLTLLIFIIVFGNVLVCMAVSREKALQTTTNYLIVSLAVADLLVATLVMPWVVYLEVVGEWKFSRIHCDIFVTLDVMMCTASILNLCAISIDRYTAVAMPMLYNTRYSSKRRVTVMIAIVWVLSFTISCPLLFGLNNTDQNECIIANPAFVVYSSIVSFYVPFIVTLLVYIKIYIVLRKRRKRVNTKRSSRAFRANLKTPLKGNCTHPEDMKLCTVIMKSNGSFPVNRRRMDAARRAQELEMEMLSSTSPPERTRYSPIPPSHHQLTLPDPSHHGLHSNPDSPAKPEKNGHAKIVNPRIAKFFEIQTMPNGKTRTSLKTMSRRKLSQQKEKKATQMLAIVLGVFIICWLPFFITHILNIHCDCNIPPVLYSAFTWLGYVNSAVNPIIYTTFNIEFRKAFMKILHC
Procedure: (§1) Striatal membranes fractions were prepared from a rat brain, and the affinity of the compounds of this invention on dopamine 2 receptors was determined by using [^3 H] spiperone assay from membranes fractions as an index. Moreover, frontal cortex membranes were prepared from a rat brain, and the affinity of the test drugs on serotonine 2 receptor was determined by using [^3 H] ketenserin binding assay. It was shown that the compounds of general formula (1) of the invention have marked anti-dopamine activity and anti-serotonine activity.
[^3 H]spiperone binding assay
The affinity of the compounds of this invention to the dopamine 2 receptor was determined on the basis of the ability to substitute [^3 H] spiperone from stratal membrane fractions prepared from the brain a Wistarstrain male rat.
The rat was decapitated, and the brain was obtained. The striatum was homogenized in 40 volumes of 50 mM Tris-HCl buffer (pH 7.6), and then centrifuged. The pellets were again homogenized in 50 volumes of the same buffer, and used in a binding test. The binding test was conducted by the following procedure.
The stria (original tissue weight 20 mg/ml), 100 microliters of a test drug and 0.5 nM of [^3 H] spiperone were incubated at 37° C. for 10 minutes in 50 mM Tris-HCl buffer (pH 7.6). Then, the reaction mixture was suction-filtered through a glass fiber filter (Watmann GF/B) and washed with a buffer three times.
The filter was put in a scintillation cocktail (ACSII, Amersham Co.), and after mixing, left to stand overnight. The radioactivity held on the filter was measured by a liquid scintillation counter. The nonspecific binding was measured in the presence of 1 μM of (+) butaclamol. The concentration of the test drug which inhibited 50% of a specific binding was determined from the graph and defined as IC50. Ki was calculated from the following equation. [formula]

[6] = biological target: T2, serotonine 2 receptor (Rattus norvegicus, UniProt P14842); assay: [3H]ketanserin binding assay (affinity for serotonine 2 receptor); design: species or system Wistar male rat; settings: rat frontal cortex, 1 nM [3H] ketanserin, 37° C., 10 minutes
T2 construct: frontal cortex fraction prepared from the brain of a Wistar male rat; from tissue; host or cells: rat brain frontal cortex (Wistar, male), membrane fraction
T2 sequence (P14842 whole entry): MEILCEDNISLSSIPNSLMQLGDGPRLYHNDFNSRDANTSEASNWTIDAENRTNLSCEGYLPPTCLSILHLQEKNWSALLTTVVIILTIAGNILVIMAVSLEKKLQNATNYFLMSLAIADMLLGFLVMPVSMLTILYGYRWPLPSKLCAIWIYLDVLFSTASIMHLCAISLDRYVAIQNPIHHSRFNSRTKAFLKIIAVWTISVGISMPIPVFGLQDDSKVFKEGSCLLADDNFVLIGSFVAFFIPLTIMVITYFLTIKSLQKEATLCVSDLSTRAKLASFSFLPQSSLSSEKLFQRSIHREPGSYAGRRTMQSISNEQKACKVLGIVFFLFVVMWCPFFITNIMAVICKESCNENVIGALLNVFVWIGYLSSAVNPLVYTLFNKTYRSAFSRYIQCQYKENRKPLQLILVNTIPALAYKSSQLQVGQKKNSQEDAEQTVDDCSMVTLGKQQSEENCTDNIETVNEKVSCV
Procedure: as §1
[^3 H] ketanserin binding assay
The affinity of the compound of the invention was determined on the basis of the ability to substitute [^3 H] ketanserin from a frontal cortex fraction prepared from the brain of a Wistar male rat.
The rat was decapitated, and the brain was obtained. The frontal cortex was homogenized in 40 volumes of 50 mM Tris-HCl buffer (pH 7.6), and then centrifuged. The pellets were again homogenized in 100 volumes of the same buffer, and used in a binding test. The binding test was conducted by the following procedure.
The frontal cortex (original tissue weight 1 mg/ml), 100 microliters of a test drug and 1 nM of [^3 H] ketanserin were incubated at 37° C. for 10 minutes in 50 mM Tris-HCl buffer (pH 7.6). Then, the reaction mixture was suction-filtered through a glass fiber filter (Watmann GF/B) and washed with a buffer three times.
The filter was put in a scintillation cocktail (ACSII, Amersham Co.), and after mixing, left to stand overnight. The radioactivity held on the filter was measured by a liquid scintillation counter. The nonspecific binding was measured in the presence of 1 μM of methysergide. The concentration of the test drug which inhibited 50% of a specific binding was determined from the graph and defined as IC5. Ki was calculated from the following equation. [formula]

[7] = test system: Quipazine-induced head twitching of mice; assay: Quipazine-induced head twitching (anti-5-HT activity); type: in vivo, ddY-strain male mice; settings: 1 mg/kg i.p.
Description: The effects of the compounds of general formula (1) on the apomorphine-induced climbing behavior of mice (i.e. anti-dopamine activity) and the effects of the test drugs of the invention on the quipazine-induced head twitching of mice (i.e. anti-serotonine activity) were also examined. It was made clear that the compounds of this invention represented by general formula (1) have marked anti-dopamine activity and anti-serotonine activity both in vivo and in vitro, and have potentiality as an anti-psychotic agent, an anti-depressant, an antianxiety agent, a sedative or as an anti-dementia agent.
By using 5 week old ddY-strain male mice (10 per group), the anti-dopamine (anti-DA hereinafter) and anti-serotonine (anti-5-HT hereinafter) activities were examined by the following procedures. All does of test drugs were adjusted to 1 mg/ml. They were each suspended in 0.5% carboxymethyl cellulose (CMC)/saline so that their volume administered was 0.1 ml/10 g. The suspension was administered intraperitoneally.
2. Effect of quipazine on the head twitch (anti-5-HT activity):
Quipazine (3 mg/kg) was administered intraperitoneally 30 minutes after the intraperitoneal administration of each test drug. After the lapse of 10 minutes, 20 minutes and 30 minutes from then, the number of head twitchings of each mouse which occurred for 2 minutes was counted.

[8] = po, LD50 p.o., p.o., 24 hours after administration, male ddY mice

Compound	disappearance of atrial fibrillation [1]	change in vivo at 0.1 mg/kg ([2]; iv, 0.1 mg/kg i.v.)	change in vivo at 0.3 mg/kg ([2]; iv, 0.3 mg/kg i.v.)	change in vivo at 1 mg/kg ([2]; iv, 1 mg/kg i.v.)	change in vivo at 0.1 mg/kg ([2]; 0.1 mg/kg i.d.)	change in vivo at 0.3 mg/kg ([2]; 0.3 mg/kg i.d.)	change in vivo at 1 mg/kg ([2]; 1 mg/kg i.d.)	APD75 % (percent change in APD75) ([3]; dose 1 μg/ml)	APD75 % (percent change in APD75) ([3]; dose 3 μg/ml)	LD50 at 24 h ([4]; ip, LD50 i.p., i.p., 24 hours after administration, male ddY mice)	LD50 at 24 h [4, 8]	activation at 1 µg/mL ([3]; dose 1 μg/ml)	activation at 3 µg/mL ([3]; dose 3 μg/ml)	activation at 10 µg/mL [3]	change in vivo at 3 mg/kg ([2]; iv)	Ki [5]	Ki [6]	LD50 at 24 h ([4]; po)	Percent inhibition of quipazine-induced head twitching [7]	Quipazine-induced head twitching ([7]; control 6.7 ± 0.8, **p < 0.05, ***p < 0.001)
CCCCCCCN(CC)CCCOc1ccc2c(c1)OCC2=O.Cl [Compound 102, 6-3-(N-ethyl-N-heptylamino)propyloxycoumaran-3-one hydrochloride]	could cause disappearance fibrillation	11.7 ± 3.2%	21.3 ± 3.3%	23.3 ± 2.9%	0%	13%	27%	20%	30%	~100 mg/kg	~300 mg/kg	–	–	–	–	–	–	–	–	–
CCCCN(CCCC)CCCOc1ccc2c(c1)OCC2=O [Compound 144]	could cause disappearance fibrillation	10 ± 1.7%	15.5 ± 4.9%	21.1 ± 6.2%	–	–	–	–	–	–	–	13%	26%	33%	–	–	–	–	–	–
CC1CCCN(CCCOc2ccc3c(c2)OCC3=O)C1 (centres unmarked) [Compound 1118]	could cause disappearance fibrillation	5%	9%	22%	–	–	–	–	–	–	> 300 mg/kg	10%	13%	24%	26%	–	–	–	–	–
CC1CCCC(C)N1CCCOc1ccc2c(c1)OCC2=O (centres unmarked) [Compound 1126]	could cause disappearance fibrillation	–	8%	12%	–	–	–	–	–	–	> 300 mg/kg	–	19%	27%	15%	–	–	–	–	–
O=C1COc2cc(OCCCN3CCC(Cc4ccccc4)CC3)ccc21 [Compound 1146]	could cause disappearance fibrillation	4%	16%	20%	–	–	–	–	–	–	> 300 mg/kg	18%	25%	34%	–	> 400 nM	441 nM	–	–	–
O=C1COc2cc(OCCCN3CCC(O)(c4ccccc4)CC3)ccc21 [Compound 1150]	–	–	–	–	–	–	–	–	–	–	–	4%	12%	14%	–	> 400 nM	306 nM	> 300 mg/kg	–	–
O=C1COc2cc(OCCCN3CCN(c4ccccc4)CC3)ccc21 [Compound 1256]	–	–	–	–	–	–	–	–	–	–	–	–	–	–	–	286 nM	175 nM	–	43%	3.8 ± 0.9 number/2 min.
CS(=O)(=O)NC1CCN(CCCOc2ccc3c(c2)OCC3=O)CC1 [Compound 1286]	–	8.3%	8.3%	16.6%	–	–	–	–	–	–	> 300 mg/kg	–	7%	–	16.6%	> 400 nM	475 nM	–	–	–
